Laboratory results published in patent publication US12622911B2, “Methods and compositions for the treatment of pulmonary fibrosis using volasertib” (Children's Hospital Medical Center, priority 2021, dated 2026).

Key:
[1] = test system: severe fibrotic lung disease; assay: Therapeutic efficacy against severe fibrotic lung disease in two alternative mouse models (TGFα transgenic, repeated bleomycin); type: in vivo; conditions: compared to FDA-approved nintedanib therapy
Excerpt: WT1-driven anti-apoptotic genes (BCL3, BCL2L1, etc.), MYCN, and PLK1 were previously unknown to have a role in the pathogenesis of lung scarring, in fibroproliferation, FMT, survival, and ECM production. […] A novel clinical application for volasertib in the area of pulmonary fibrosis may include volasertib therapy to prevent progression or reverse established fibrotic lung disease. Applicant's studies utilize a novel transgenic mouse model in which the pro-fibrotic growth factor TGFα is selectively and temporally overexpressed in the lung epithelium, resulting in progressive subpleural scarring, similar to the pattern seen in human IPF, and an alternative mouse model of fibrosis using repeated doses of bleomycin. Applicant's data provide compelling support that inhibiting the MYCN-PLK1 axis may be effective in arresting fibrotic lung remodeling, and may be used in patients with pulmonary fibrosis.

[2] = test system: WT1-MYCN-PLK1 axis in IPF fibroblasts; assay: PLK1, MYCN and WT1 protein levels in IPF fibroblast lysates by western blot; type: cell-based, human; conditions: volasertib 1 μM for 48 hours, western blot normalized to GAPDH, FIG. 17
Protocol: FIG. 17. Volasertib treatment attenuates the WT1-MYCN-PLK1 axis in IPF fibroblasts. IPF fibroblasts were treated with vehicle or volasertib (1 μM) for 48 hours and measured PLK1, MYCN and WT1 protein levels in cell lysates using western blots and normalized to GAPDH. *P<0.05.
(§1) Pharmacological inhibition of PLK1 attenuates the WT1-MYCN-PLK1 axis. […] To determine in vivo therapeutic effects of volasertib, TGFα mice were treated simultaneously with volasertib (30 mg/kg; QD) and Dox for five days, a period that leads to activation of WT1, MYCN and PLK1 in fibroblasts. […] Together, in vivo studies have established that inhibiting PLK1 is sufficient to attenuate the WT1-MYCN-PLK1 axis involved in fibroblast activation and pulmonary fibrosis.

IPF fibroblasts [3] = assay: CDK4 gene expression in IPF fibroblasts by RT-PCR; type: cell-based, human; conditions: vehicle or volasertib for 16 hours, FIG. 20
IPF fibroblasts [4] = assay: ECM-associated gene transcripts in IPF fibroblasts by RT-PCR; type: cell-based, human; conditions: vehicle or volasertib for 16 hours, FIG. 16
Protocol: FIG. 16. Inhibition of PLK1 using volasertib attenuates ECM gene expression. IPF fibroblasts were treated with vehicle or volasertib for 16 hours and ECM-associated gene transcripts Col1α, Col3α1, FN1, and αSMA) were measured using RT-PCR. *p<0.05.
as §1

[5] = test system: TGFα-induced pulmonary fibrosis; assay: TGFα-induced pulmonary fibrosis in TGFα mice on Dox, lung gene expression; type: in vivo; conditions: volasertib 30 mg/kg QD with Dox for five days
Excerpt: FIG. 18. In vivo inhibition of PLK1 with volasertib attenuates ECM gene expression during TGFα-induced pulmonary fibrosis.
FIG. 19. In vivo inhibition of PLK1 with volasertib attenuates MYCN and PLK1 during TGFα induced pulmonary fibrosis.
FIG. 21. In vivo inhibition with volasertib attenuates ECM gene expression during TGFα-induced pulmonary fibrosis. *P<0.05.
as §1

[6] = H&E stainings for toxicity in volasertib-treated TGFα mice; type: in vivo; conditions: at the doses tested (30 mg/kg QD, five days), data not shown
Protocol: as §1

PLK1 = PLK1 (Homo sapiens, UniProt P53350); conditions: cited from earlier work
Chain of PLK1 (P53350 whole entry, species assumed): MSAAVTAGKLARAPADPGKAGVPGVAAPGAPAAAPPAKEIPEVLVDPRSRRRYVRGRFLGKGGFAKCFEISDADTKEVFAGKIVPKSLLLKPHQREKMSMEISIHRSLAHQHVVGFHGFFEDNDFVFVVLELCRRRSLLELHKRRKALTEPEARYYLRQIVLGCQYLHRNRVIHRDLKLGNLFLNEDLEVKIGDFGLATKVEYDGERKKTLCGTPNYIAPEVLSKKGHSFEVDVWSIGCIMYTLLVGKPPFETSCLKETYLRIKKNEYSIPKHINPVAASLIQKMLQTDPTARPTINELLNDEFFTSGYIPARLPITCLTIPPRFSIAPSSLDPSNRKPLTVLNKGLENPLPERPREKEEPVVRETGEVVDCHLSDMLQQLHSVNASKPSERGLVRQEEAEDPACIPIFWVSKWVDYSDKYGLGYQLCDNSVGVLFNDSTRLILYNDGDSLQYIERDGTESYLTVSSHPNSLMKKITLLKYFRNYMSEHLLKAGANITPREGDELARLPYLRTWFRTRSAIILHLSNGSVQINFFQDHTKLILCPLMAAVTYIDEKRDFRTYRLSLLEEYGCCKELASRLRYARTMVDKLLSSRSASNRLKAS

In the case of `CC[C@@H]1C(=O)N(C)c2cnc(Nc3ccc(C(=O)N[C@H]4CC[C@H](N5CCN(CC6CC6)CC5)CC4)cc3OC)nc2N1C(C)C` [volasertib, N-[trans-4-[4-(cyclopropylmethyl)-1-piperazinyl]cyclohexyl]-4-[[(7R)-7-ethyl-5,6,7,8-tetrahydro-5-methyl-8-(1-methylethyl)-6-oxo-2-pteridinyl]amino]-3-methoxy-benzamide], the “therapeutic efficacy against severe fibrotic lung disease” value [1] is reported as “demonstrated therapeutic efficacy”, the “MYCN, WT1 and PLK1 levels” value [2] is reported as “sufficient to attenuate MYCN, WT1 and PLK1 levels” and the CDK4 gene expression (IPF fibroblasts [3]) is reported as “attenuates CDK4 gene expression”. For the same molecule, the “ECM gene expression (Col1α, Col3α1, FN1, αSMA transcripts)” value (IPF fibroblasts [4]) was “sufficient to attenuate ECM gene expression”, the “MYCN and PLK1 levels in lungs” value ([5]; FIG. 19) was “able to attenuate both MYCN and PLK1 levels” and the “ECM gene expression including Col1α1, Col3a1, and FN1” value ([5]; vs vehicle-treated fibrosis controls, FIG. 18) was “attenuated ECM gene expression”. For the same molecule, the “toxicity by H&E stainings” value [6] was “no toxicity” and the “binds and inhibits PLK1” value (PLK1) was “at nanomolar doses”.
